Results on 15 compounds are retold here after patent US20250326767A1, “NOVEL BENZOTHIAZOLE DERIVATIVES” (CARNA BIOSCIENCES, INC., priority 2021, published 2025).

Common to all, as to assay: Inhibition test on activity of DYRK family, mobility shift assay (MSA)
Holding throughout (type): biochemical

For one test, the target named is T1, DYRK2 (Homo sapiens, UniProt Q92630).
T1 construct: purchased Carna Biosciences, Inc. 04-132
T1 sequence (Q92630 1-601): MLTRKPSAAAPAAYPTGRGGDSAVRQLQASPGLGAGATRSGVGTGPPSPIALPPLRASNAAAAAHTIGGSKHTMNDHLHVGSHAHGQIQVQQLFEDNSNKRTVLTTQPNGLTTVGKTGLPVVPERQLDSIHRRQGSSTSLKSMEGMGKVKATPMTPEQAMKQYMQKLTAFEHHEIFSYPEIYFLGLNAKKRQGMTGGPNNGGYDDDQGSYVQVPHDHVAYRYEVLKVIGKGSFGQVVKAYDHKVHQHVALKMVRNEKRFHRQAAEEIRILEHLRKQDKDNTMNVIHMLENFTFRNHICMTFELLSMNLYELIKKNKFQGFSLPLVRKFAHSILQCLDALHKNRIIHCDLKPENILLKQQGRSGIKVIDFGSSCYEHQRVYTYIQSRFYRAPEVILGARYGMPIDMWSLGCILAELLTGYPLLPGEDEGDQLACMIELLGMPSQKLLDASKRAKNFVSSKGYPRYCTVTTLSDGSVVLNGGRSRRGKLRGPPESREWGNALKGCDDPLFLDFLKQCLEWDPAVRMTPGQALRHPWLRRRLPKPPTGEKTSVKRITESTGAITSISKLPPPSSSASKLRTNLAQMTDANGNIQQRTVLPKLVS
To be noted: ATP 40 μM; FITC-labeled DYRKtide peptide substrate; room temperature 1 hour; read-out: Inhibitory Activity DYRK2 (IC50 class). The protocol: (§1) The kinase activity was measured by mobility shift assay (MSA) method using QuickScout Screening Assist™ MSA (commercially available kit manufactured by Carna Biosciences, Inc.). The substrate of the kinase reaction used was an FITC-labeled DYRKtide peptide included in the kit. An assay buffer [20 mM HEPES, 0.01% Triton X-100™, 2 mM dithiothreitol, pH 7.5] was used to create a substrate mixture solution with a substrate (4 μM), MgCl2 (20 mM), and ATP (DYRK1A: 100 μM; DYRKIB: 200 μM; DYRK2:40 μM; and DYRK3:20 μM). In addition, kinases (DYRK1A: manufactured by Carna Biosciences, Inc., Cat. No. 04-130; DYRK1B: manufactured by Carna Biosciences, Inc., Cat. No. 04-131; DYRK2; manufactured by Carna Biosciences, Inc., Cat. No. 04-132; and DYRK3; manufactured by Carna Biosciences, Inc., Cat. No. 04-133) were diluted with the assay buffer to prepare enzyme solutions (DYRK1A: 0.2 ng/μL; DYRK1B: 0.08 ng/μL; DYRK2: 0.04 ng/μL; and DYRK3:0.25 ng/μL). The 10 mM solution of the test compound in DMSO was further diluted with DMSO to 10 levels of the concentration (0.00003 mM, 0.0001 mM, 0.0003 mM, 0.001 mM, 0.003 mM, 0.01 mM, 0.03 mM, 0.1 mM, 0.3 mM, and 1 mM), each of which was subjected to 25-fold dilution with the assay buffer to obtain a drug solution (4% DMSO solution). 5 μL of the drug solution or a control solution (4% DMSO-assay buffer), 5 μL of the substrate mixture solution, and 10 μL of the enzyme solution were mixed in the wells of a polypropylene 384-well plate and allowed to react at room temperature for 1 hour, and then the reaction was quenched by adding 60 μL of the termination buffer included in the kit. Subsequently, the quantities of the substrates(S) and the phosphorylated substrate (P) in the reaction solution were measured using LabChip EZ Reader II system (manufactured by Caliper Life Sciences) according to the protocol of the assay kit.
(§2) The heights of the peaks of the “substrate” and the “phosphorylated substrate” were expressed as S and P, respectively, and a blank containing the assay buffer instead of the enzyme solution was also measured.
(§3) The inhibition rate (%) of the test compound was calculated according to the following equation: […]
(§4) wherein, A, B, and C represent P/(P+S) of the blank well, P/(P+S) of the control solution well, and P/(P+S) of the compound-containing well, respectively.
(§5) The IC50 value was calculated via a regression analysis of the inhibition rate and the test compound concentration (logarithmic value).

The target in another test is T2, DYRK1A (Homo sapiens, UniProt Q13627).
T2 construct: purchased Carna Biosciences, Inc. 04-130
To be noted: ATP 100 μM; FITC-labeled DYRKtide peptide substrate; room temperature 1 hour; read-out: Inhibitory Activity DYRK1A (IC50 class). The protocol:
as §1, §2, §3, §4, §5

The next test addresses T3, DYRK3 (Homo sapiens, UniProt O43781).
T3 construct: purchased Carna Biosciences, Inc. 04-133
T3 sequence (O43781 1-588): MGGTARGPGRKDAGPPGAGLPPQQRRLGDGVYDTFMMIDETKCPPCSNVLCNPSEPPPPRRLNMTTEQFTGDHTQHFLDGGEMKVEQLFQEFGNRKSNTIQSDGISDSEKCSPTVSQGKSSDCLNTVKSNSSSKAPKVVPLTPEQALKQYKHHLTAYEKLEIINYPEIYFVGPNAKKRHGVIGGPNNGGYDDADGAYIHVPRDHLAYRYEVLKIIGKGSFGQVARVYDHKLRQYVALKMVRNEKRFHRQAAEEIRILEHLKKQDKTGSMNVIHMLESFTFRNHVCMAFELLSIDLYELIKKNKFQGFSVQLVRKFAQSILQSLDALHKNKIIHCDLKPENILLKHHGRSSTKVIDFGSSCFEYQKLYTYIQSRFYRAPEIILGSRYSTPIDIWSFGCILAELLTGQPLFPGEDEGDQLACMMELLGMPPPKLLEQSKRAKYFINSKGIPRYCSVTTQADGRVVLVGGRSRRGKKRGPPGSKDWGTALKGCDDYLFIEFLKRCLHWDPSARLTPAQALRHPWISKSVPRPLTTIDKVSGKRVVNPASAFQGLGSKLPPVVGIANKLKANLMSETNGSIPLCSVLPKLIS
The conditions noted are these: ATP 20 μM; FITC-labeled DYRKtide peptide substrate; room temperature 1 hour; read-out: Inhibitory Activity DYRK3 (IC50 class). As for the experimental part:
as §1, §2, §3, §4, §5

What is called IC50 is the point on the concentration scale where inhibition reaches its midpoint.

The structures appear in SMILES notation.

Take `CC#CC1N(c2nc3c4c(ccc3s2)OCC4)C(=O)NC12CC2` (racemic) [Example 2, (RS)-6-(7,8-dihydrobenzofuro[4,5-d]thiazol-2-yl)-7-(prop-1-yn-1-yl)-4,6-diazaspiro[2.4]heptan-5-one]: the IC50 was 100 to 1000 nM at DYRK2, less than 10 nM at DYRK1A and 100 to 1000 nM at DYRK3.

As to `CC#C[C@@H]1[C@H](C)CNC(=O)N1c1nc2c3c(ccc2s1)OCC3` (stereo in doubt) [Example 10, (5R*,6S*)-1-(7,8-dihydrobenzofuro[4,5-d]thiazol-2-yl)-5-methyl-6-(prop-1-yn-1-yl)tetrahydropyrimidin-2(1H)-one], the IC50 at DYRK2 and at DYRK3 was more than 1000 nM each time.

For the compound `CC#CC1CCNC(=O)N1c1nc2c3c(ccc2s1)OCCO3` (single isomer, unassigned) [Example 6, 1-(7,8-dihydro-[1,4]dioxyno[2′,3′:5,6]benzo[1,2-d]thiazol-2-yl)-6-(prop-1-yn-1-yl)tetrahydropyrimidin-2(1H)-one], the IC50 at DYRK2 is more than 1000 nM; on DYRK1A, 100 to 1000 nM; on DYRK3, more than 1000 nM.

As to `CC#CC1N(c2nc3c4c(ccc3s2)OCC4)C(=O)NC12CCCC2` (single isomer, unassigned) [Example 23, 3-(7,8-dihydrobenzofuro[4,5-d]thiazol-2-yl)-4-(prop-1-yn-1-yl)-1,3-diazaspiro[4.4]nonan-2-one], the IC50 at DYRK2 and at DYRK3 was more than 1000 nM throughout.

In the case of `CC#CC1N(c2nc3c4c(ccc3s2)OCC4)C(=O)NC12COC2` (racemic) [Example 9, (RS)-7-(7,8-dihydro-benzofuro[4,5-d]thiazol-2-yl)-8-(prop-1-yn-1-yl)-2-oxa-5,7-diazaspiro[3.4]octan-6-one], the results for the IC50 at DYRK2, at DYRK1A and at DYRK3 were more than 1000 nM, 10 to 100 nM and 100 to 1000 nM, respectively.

For `CC#CC1N(c2nc3c4c(ccc3s2)OCC4)C(=O)NC12CC2` (single isomer, unassigned) [Example 18, 6-(7,8-dihydrobenzofuro[4,5-d]thiazol-2-yl)-7-(prop-1-yn-1-yl)-4,6-diazaspiro[2.4]heptan-5-one], the results for the IC50 at DYRK2, on DYRK1A and on DYRK3 were 100 to 1000 nM, less than 10 nM and 10 to 100 nM, respectively.

For the compound `CC#CC1N(c2nc3c4c(ccc3s2)OCC4)C(=O)NC12CCC2` (single isomer, unassigned) [Example 21, 7-(7,8-dihydrobenzofuro[4,5-d]thiazol-2-yl)-8-(prop-1-yn-1-yl)-5,7-diazaspiro[3.4]octan-6-one], the figures for the IC50 at DYRK2, on DYRK1A and at DYRK3 were more than 1000 nM, 100 to 1000 nM and more than 1000 nM, respectively.

Regarding `CC#CC1N(c2nc3c4c(ccc3s2)OCCO4)C(=O)NC12CC2` (single isomer, unassigned) [Example 8, 6-(7,8-dihydro-[1,4]dioxyno[2′,3′:5,6]benzo[1,2-d]thiazol-2-yl)-7-(prop-1-yn-1-yl)-4,6-diazaspiro[2.4]heptan-5-one], the IC50 at DYRK2 and at DYRK3 was more than 1000 nM throughout.

`CC#CC1N(c2nc3c4c(ccc3s2)OCC4)C(=O)NC12CCCC2` (single isomer, unassigned) [Example 22, 3-(7,8-dihydrobenzofuro[4,5-d]thiazol-2-yl)-4-(prop-1-yn-1-yl)-1,3-diazaspiro[4.4]nonan-2-one]: the IC50 at DYRK2 was more than 1000 nM; at DYRK3 it was 100 to 1000 nM.

Consider `CC#CC1N(c2nc3c4c(ccc3s2)OCC4)C(=O)NC12CCC2` (single isomer, unassigned) [Example 20, 7-(7,8-dihydrobenzofuro[4,5-d]thiazol-2-yl)-8-(prop-1-yn-1-yl)-5,7-diazaspiro[3.4]octan-6-one], for which the IC50 was more than 1000 nM at DYRK2, less than 10 nM on DYRK1A and 100 to 1000 nM at DYRK3.

Take `CC#CC1N(c2nc3c4c(ccc3s2)OCCO4)C(=O)NC12CC2` (racemic) [Example 4, (RS)-6-(7,8-dihydro-[1,4]dioxyno[2′,3′:5,6]benzo[1,2-d]thiazol-2-yl)-7-(prop-1-yn-1-yl)-4,6-diazaspiro[2.4]heptan-5-one]: the IC50 at DYRK2 and at DYRK3 was 100 to 1000 nM each time.

Turning to `CC#C[C@@H]1[C@@H](C)CNC(=O)N1c1nc2c3c(ccc2s1)OCC3` (stereo in doubt) [Example 11, (5S*, 6S*)-1-(7,8-dihydrobenzofuro[4,5-d]thiazol-2-yl)-5-methyl-6-(prop-1-yn-1-yl)tetrahydropyrimidin-2(1H)-one], the IC50 on DYRK2 and on DYRK3 was more than 1000 nM in each case.

Regarding `CC#CC1CCNC(=O)N1c1nc2c3c(ccc2s1)OCCO3` (racemic) [Example 1, (RS)-1-(7,8-dihydro-[1,4]dioxino[2′,3′:5,6]benzo[1,2-d]thiazol-2-yl)-6-(prop-1-yn-1-yl)tetrahydropyrimidin-2(1H)-one], the values for the IC50 on DYRK2, at DYRK1A and on DYRK3 were more than 1000 nM, less than 10 nM and more than 1000 nM, respectively.

Turning to `CC#CC1CCNC(=O)N1c1nc2c3c(ccc2s1)OCC3` (racemic) [Example 3, (RS)-3-(7,8-dihydrobenzofuro[4,5-d]thiazol-2-yl)-4-(prop-1-yn-1-yl)-tetrahydropyrimidin-2(1H)-one], the IC50 was 100 to 1000 nM at DYRK2, less than 10 nM on DYRK1A and 100 to 1000 nM on DYRK3.

`CC#CC1N(c2nc3c4c(ccc3s2)OCC4)C(=O)NC12CC2` (single isomer, unassigned) [Example 19, 6-(7,8-dihydrobenzofuro[4,5-d]thiazol-2-yl)-7-(prop-1-yn-1-yl)-4,6-diazaspiro[2.4]heptan-5-one]: the half-inhibitory concentration (IC50) at DYRK2, on DYRK1A and at DYRK3 was more than 1000 nM in each case.
